Tests used:
chronic red eyes = assay: Chronic red eyes, eld brimonidine vs Naphcon-A, patient satisfaction assessment (Example 5); type: in vivo, human; conditions: brimonidine at […], drops twice a day for three to five weeks, seven patients
Protocol: The treatment was through drops twice a day for three to five weeks. At the end, patient satisfaction assessment was conducted.

[1] = system: vasoconstriction, rebound hyperemia, intraocular pressure, corneal endothelial cell pump; conditions: FIG. 2
[2] = system: postoperative hyperemia and conjunctival hemorrhage; assay: Lasik prophylaxis (Example 2); conditions: brimonidine 0.02%
rebound hyperemia = assay: Reversal of pre-induced rebound hyperemia (FIGS. 5A-C); type: in vivo, human; conditions: right eye, brimonidine at […] after VISINE Original
Text: FIG. 5A is a baseline visual appearance of two eyes of a patient with an ocular condition.

[3] = system: eyes of a patient with an ocular condition; conditions: brimonidine 0.01-[…] (left eye) compared with tetrahydrozoline 0.05%, oxymetazoline […], naphazoline […] (right eye); baseline redness 4/4
Text: In an average clinical situation, baseline redness is at 1-1.5/4.

red eye condition = assay: Red eye study, brimonidine vs VISINE Original, cumulative red scores (Example 4); type: in vivo, human; conditions: three week scores, brimonidine at […]
Protocol: The patients were assigned “cumulative red scores” , prior to each administration (as baseline) and then 10 min after each dose, by dividing the bulbar conjunctiva into six sectors, each scored with a grade 1-3 score and the total cumulative score.

Structure (SMILES): Brc1c(N=C2NCCN2)ccc2nccnc12.O=C(O)C(O)C(O)C(=O)O [brimonidine, 5-bromo-6-(2-imidazolidinylideneamino)quinoxaline L-tartrate]
- patient-reported redness (chronic red eyes): All patients reported reduced redness
- concentration at which intraocular pressure reduction and corneal endothelial cell pump inhibition are just at their maximum [1]: about 0.09%
- concentration below which intraocular pressure reduction and endothelial cell pump inhibition drop off exponentially ([1]; vasoconstrictive effect remains largely unchanged): below 0.08%
- cosmetic appearance from day 1 vs. no vasoconstrictor and vs. Naphcon-A [2]: much improved
- eye appearance after Lasik ([2]; group expanded to over 500 eyes): white quiet eye is noted in most patients
- reversal of induced rebound hyperemia (rebound hyperemia): reversing the VISINE Original® induced rebound hyperemia
- scleral whitening brightening effects [3]: significant scleral whitening brightening effects
- average redness count after administration (went down to) (red eye condition): 1.6

Source: patent publication US8293742B2, “Preferential vasoconstriction compositions and methods of use” (Alpha Synergy Development, Inc., priority 2008, dated 2012)
